Data on 5 compounds can be found in publication PMC4104496 (Clinical cancer research : an official journal of the …, 2012).

For data set [1] the following is noted: for Cmax/dose / Tmax: iv.
The nature of another data set: clinical. The following applies: human, in vivo, iv.

Where two headings read alike, the source gives them in different places.

For the compound `CCc1c2c(nc3ccc(O[C@@H]4O[C@H](C(=O)O)[C@@H](O)[C@H](O)[C@H]4O)cc13)-c1cc3c(c(=O)n1C2)COC(=O)[C@]3(O)CC` [SN-38-G, SN-38-glucuronide], the “T1/2 (terminal elimination half-life)” value in data set [1] (Mean (%CV), plasma, 76 patients, after etirinotecan pegol 58 to 245 mg/m^2) is recorded as 61 (37) d. Moreover, the trough concentrations result in data set [1] (after etirinotecan pegol dosing with all 3 schedules) is reported as “detectable”. Moreover, in data set [1] (plasma, patients, after etirinotecan pegol administration), the terminal disposition half-life worked out at 61 days.
On to `CCc1c2c(nc3ccc(OC(=O)N4CCC(NCCCCC(=O)O)CC4)cc13)-c1cc3c(c(=O)n1C2)COC(=O)C3(O)CC` (stereo not drawn) [APC, 7-ethyl-10-(4-N-(5-aminopentanoic acid)-1-piperidine)carbonyloxycamptothecin], for which, in data set [1] (human, in vivo), the AUC/dose was 13 (73) h*ng/mL/mg/m^2, the “CL or CL/F” value was 96 (49) L/h/m^2, the “T1/2 (terminal elimination half-life)” value is recorded as 58 (8) d and the terminal disposition half-life is listed as 53 days. Further, in data set [1] (human, in vivo), the Cmax/dose is 0.08 (118) ng/mL/mg/m^2 and the Tmax was 20 (41) h. In data set [1] (in vivo), the “V or V/F” value was 170 L/m^2 and the trough concentrations entry was “detectable”.
Turning to `CCc1c2c(nc3ccc(OC(=O)N4CCC(N5CCCCC5)CC4)cc13)-c1cc3c(c(=O)n1C2)COC(=O)[C@]3(O)CC` [irinotecan, reference compound], the trough concentrations result in data set [1] (in vivo) is “detectable”. Further, in “clinical”, the Tmax came to 0.167 days.
`CCc1c2c(nc3ccc(OC(=O)N4CCC(N)CC4)cc13)-c1cc3c(c(=O)n1C2)COC(=O)[C@]3(O)CC` [NPC, 7-ethyl-10-(4-amino-1-piperidino) carbonyloxycamptothecin]: the plasma concentrations result in data set [1] (in vivo) was “near the limit of quantitation”.
For `CCc1c2c(nc3ccc(O)cc13)-c1cc3c(c(=O)n1C2)COC(=O)[C@]3(O)CC` [SN-38], in data set [1] (human, in vivo), the AUC/dose is 8 (52) h*ng/mL/mg/m^2, the “CL or CL/F” value is reported as 170 (59) L/h/m^2, the “T1/2 (terminal elimination half-life)” value is on record as 50 (28) d and the Cmax/dose is recorded as 0.02 (55) ng/mL/mg/m^2. Moreover, in data set [1] (human, in vivo), the Tmax is reported as 13 (170) h. Further, in data set [1] (in vivo), the “V or V/F” value came to 27 L/m^2 and the trough concentrations entry was “detectable”.
